Test results published in PubChem BioAssay AID2060503 (Molecular Pharmacology Branch, DTP, NCI, 2025).

Test system: 817829-284-R-J1-PDC complex spheroids, viability
Assay: Anticancer human tumor 817829-284-R-J1-PDC patient-derived colon adenocarcinoma cell line growth inhibition [GQUAD]
Settings: for IC50: curve of first compound; for viability, T/C: stronger effect = lower value
Method in brief: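 Tumor cells were grown as complex spheroids with HUVEC endothelial cells and mesenchymal stem cells as stroma. G-quadruplex stabilizers were combined with targeted agents over half-log dilutions from near the clinical Cmax, or from 10 microM.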

[1] = second compound 0.0316 µM, first compound 0.0316 µM
[2] = second compound 0.0316 µM, first compound 0.1 µM
[3] = second compound 0.0316 µM, first compound 0.316 µM
[4] = second compound 0.0316 µM, first compound 1 µM
[5] = second compound 0.0316 µM, first compound 3.16 µM
[6] = second compound 0.0316 µM, first compound 10 µM
[7] = second compound 0.1 µM, first compound 0.0316 µM
[8] = second compound 0.1 µM, first compound 0.1 µM
[9] = second compound 0.1 µM, first compound 0.316 µM
[10] = second compound 0.1 µM, first compound 1 µM
[11] = second compound 0.1 µM, first compound 3.16 µM
[12] = second compound 0.1 µM, first compound 10 µM
[13] = second compound 0.316 µM, first compound 0.0316 µM
[14] = second compound 0.316 µM, first compound 0.1 µM
[15] = second compound 0.316 µM, first compound 0.316 µM
[16] = second compound 0.316 µM, first compound 1 µM
[17] = second compound 0.316 µM, first compound 3.16 µM
[18] = second compound 0.316 µM, first compound 10 µM
[19] = second compound 1 µM, first compound 0.0316 µM
[20] = second compound 1 µM, first compound 0.1 µM
[21] = second compound 1 µM, first compound 0.316 µM
[22] = second compound 1 µM, first compound 1 µM
[23] = second compound 1 µM, first compound 3.16 µM
[24] = second compound 1 µM, first compound 10 µM
[25] = second compound 3.16 µM, first compound 0.0316 µM
[26] = second compound 3.16 µM, first compound 0.1 µM
[27] = second compound 3.16 µM, first compound 0.316 µM
[28] = second compound 3.16 µM, first compound 1 µM
[29] = second compound 3.16 µM, first compound 3.16 µM
[30] = second compound 3.16 µM, first compound 10 µM
[31] = second compound 10 µM, first compound 0.0316 µM
[32] = second compound 10 µM, first compound 0.1 µM
[33] = second compound 10 µM, first compound 0.316 µM
[34] = second compound 10 µM, first compound 1 µM
[35] = second compound 10 µM, first compound 3.16 µM
[36] = second compound 10 µM, first compound 10 µM
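Also: spheroids exposed to agents for 7 days before readout.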
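For viability, T/C in this document: percent viability relative to DMSO vehicle control taken as 100%.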

With CC(=O)O[C@H]1C(=O)[C@@]2(C)[C@H]([C@H](OC(=O)c3ccccc3)[C@]3(O)C[C@H](OC(=O)[C@H](O)[C@@H](NC(=O)c4ccccc4)c4ccccc4)C(C)=C1C3(C)C)[C@]1(OC(C)=O)CO[C@@H]1C[C@@H]2O + CN(C)c1ccc(Nc2c3ccc(NC(=O)CCN4CCCC4)cc3nc3cc(NC(=O)CCN4CCCC4)ccc23)cc1 the IC50 (second compound 0.0316 µM) was < 0.0316 µM, the IC50 (second compound 0.1 µM) was < 0.0316 µM and the IC50 (second compound 0.316 µM) was < 0.0316 µM. The IC50 (second compound 1 µM) was < 0.0316 µM, the IC50 (second compound 3.16 µM) was < 0.0316 µM and the IC50 (second compound 10 µM) was < 0.0316 µM. For the same molecule, the viability, T/C [1] was 10.1%, the viability, T/C [2] was 6.36% and the viability, T/C [3] was 5.48%. The viability, T/C [4] was 3.71%, the viability, T/C [5] was 4.17% and the viability, T/C [6] was 5.39%. For the same molecule, the viability, T/C [7] was 9.42%, the viability, T/C [8] was 5.98% and the viability, T/C [9] was 5.19%. The viability, T/C [10] was 3.91%, the viability, T/C [11] was 4.27% and the viability, T/C [12] was 5.02%. It also gave a viability, T/C [13] of 8.92%, a viability, T/C [14] of 5.75% and a viability, T/C [15] of 5.24%. The viability, T/C [16] was 2.54%, the viability, T/C [17] was 3.86% and the viability, T/C [18] was 5.06%. The viability, T/C [19] was 7.08%, the viability, T/C [20] was 5.92% and the viability, T/C [21] was 5.25%. For the same molecule, the viability, T/C [22] was 3.52%, the viability, T/C [23] was 4.82% and the viability, T/C [24] was 5.09%. It also gave a viability, T/C [25] of 6.77%, a viability, T/C [26] of 5.36% and a viability, T/C [27] of 6.1%. For the same molecule, the viability, T/C [28] was 5.09%, the viability, T/C [29] was 4.3% and the viability, T/C [30] was 5.84%. The viability, T/C [31] was 10.1%, the viability, T/C [32] was 6.08% and the viability, T/C [33] was 5.52%. For the same molecule, the viability, T/C [34] was 4.61%, the viability, T/C [35] was 4.57% and the viability, T/C [36] was 5.48%.
CCCS(=O)(=O)Nc1ccc(F)c(C(=O)c2c[nH]c3ncc(-c4ccc(Cl)cc4)cc23)c1F + CN(C)c1ccc(Nc2c3ccc(NC(=O)CCN4CCCC4)cc3nc3cc(NC(=O)CCN4CCCC4)ccc23)cc1 was tested, and the IC50 (second compound 0.0316 µM) was 5.75 µM, the IC50 (second compound 0.1 µM) was 5.66 µM and the IC50 (second compound 0.316 µM) was 5.88 µM. The IC50 (second compound 1 µM) was 5.68 µM, the IC50 (second compound 3.16 µM) was 5.32 µM and the IC50 (second compound 10 µM) was 1.47 µM. The viability, T/C [1] was 113%, the viability, T/C [2] was 112% and the viability, T/C [3] was 107%. For the same molecule, the viability, T/C [4] was 98.5%, the viability, T/C [5] was 80.8% and the viability, T/C [6] was 22.4%. For the same molecule, the viability, T/C [7] was 98.9%, the viability, T/C [8] was 116% and the viability, T/C [9] was 100%. It also gave a viability, T/C [10] of 102%, a viability, T/C [11] of 79.1% and a viability, T/C [12] of 21.5%. The viability, T/C [13] was 107%, the viability, T/C [14] was 115% and the viability, T/C [15] was 97.7%. For the same molecule, the viability, T/C [16] was 111%, the viability, T/C [17] was 84% and the viability, T/C [18] was 20.9%. It also gave a viability, T/C [19] of 109%, a viability, T/C [20] of 110% and a viability, T/C [21] of 104%. The viability, T/C [22] was 98%, the viability, T/C [23] was 79.8% and the viability, T/C [24] was 22.2%. It also gave a viability, T/C [25] of 106%, a viability, T/C [26] of 112% and a viability, T/C [27] of 95.6%. The viability, T/C [28] was 96.1%, the viability, T/C [29] was 76.3% and the viability, T/C [30] was 19.1%. The viability, T/C [31] was 94.4%, the viability, T/C [32] was 87.3% and the viability, T/C [33] was 63.2%. The viability, T/C [34] was 66.6%, the viability, T/C [35] was 32.8% and the viability, T/C [36] was 7.36%.
